Molecular target: Monocarboxylate transporter 1 (Homo sapiens) (UniProt P53985)
Assay: TP_TRANSPORTER: uptake in Xenopus laevis oocytes
Conditions: Oocyte

Chain of Monocarboxylate transporter 1 (Homo sapiens) (P53985 whole entry, looked up): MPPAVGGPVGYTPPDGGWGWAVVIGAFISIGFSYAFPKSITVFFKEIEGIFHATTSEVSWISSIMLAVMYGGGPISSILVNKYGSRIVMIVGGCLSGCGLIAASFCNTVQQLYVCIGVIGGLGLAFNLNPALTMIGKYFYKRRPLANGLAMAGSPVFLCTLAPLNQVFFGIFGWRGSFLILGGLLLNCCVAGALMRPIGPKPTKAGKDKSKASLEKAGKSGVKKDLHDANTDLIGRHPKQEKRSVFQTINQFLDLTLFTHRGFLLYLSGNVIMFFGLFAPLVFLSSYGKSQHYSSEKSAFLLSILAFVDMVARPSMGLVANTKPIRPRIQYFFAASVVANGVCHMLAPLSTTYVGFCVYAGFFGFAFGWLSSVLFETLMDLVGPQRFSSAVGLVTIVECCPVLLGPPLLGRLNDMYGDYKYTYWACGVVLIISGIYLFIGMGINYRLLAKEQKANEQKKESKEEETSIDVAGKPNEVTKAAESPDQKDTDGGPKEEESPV

Activity: is not a substrate [-]
SMILES: CC(C)[C@H]1CC[C@H](C(=O)N[C@H](Cc2ccccc2)C(=O)O)CC1
